In PubChem BioAssay (NCI):
“And” between values parts separate entries of the source, which are not always exact repeats. Equal values may be shown once.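 Growth conditions: 96-well plates. Treatment: test compound, 48 hours, 5 concentrations. Analysis: linear interpolation between bracketing concentrations; unreached endpoints set to highest concentration. GI50 is the concentration that inhibits growth by half. TGI: total growth inhibition.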

How the values were obtained:
Experiment in all cases: inhibition of tumour cell growth, NCI panel, 48 h
[1] = tested on: SK-MEL-2 melanoma
[2] = tested on: HCC-2998 colon
[3] = tested on: HOP-92 NSCLC
[4] = tested on: SF-539 CNS
[5] = tested on: PC-3 prostate
[6] = tested on: NCI/ADR-RES ovarian
[7] = tested on: OVCAR-3 ovarian
[8] = tested on: M14 melanoma
[9] = tested on: MDA-MB-231 breast
[10] = tested on: OVCAR-4 ovarian

**Q.** Which results are given for `CC1=CC(c2ccccc2)n2c(nc3cc4ccccc4cc32)N1` (configuration not stated)?
**A.** TGI [1]: > 100 µM; TGI [2]: > 100 µM; TGI [3]: > 100 µM; TGI [4]: > 100 µM; TGI [5]: > 100 µM; TGI [6]: > 100 µM; TGI [7]: > 100 µM; TGI [8]: > 100 µM; TGI [9]: > 100 µM; TGI [10]: > 100 µM

**Q.** For `CSC1(SC)CCCCCCCCCCC1`, which TGI [1] is on record?
**A.** > 100 µM

**Q.** What about the TGI [2] of the same compound?
**A.** 40.5 µM

**Q.** What about the TGI [3] of the same compound?
**A.** 87.5 µM

**Q.** What about the TGI [4] of the same compound?
**A.** > 100 µM

**Q.** What about the TGI [5] of the same compound?
**A.** > 100 µM

**Q.** What about the TGI [6] of the same compound?
**A.** > 100 µM

**Q.** And the TGI [7]?
**A.** 72.7 µM

**Q.** What about the TGI [8] of the same compound?
**A.** > 100 µM

**Q.** What about the TGI [9] of the same compound?
**A.** > 100 µM

**Q.** And the TGI [10]?
**A.** > 100 µM

**Q.** With `Clc1ncc(C(Cl)(Cl)Cl)nc1-c1ccccc1` as the compound, how does the TGI [1] read?
**A.** 5.04 µM

**Q.** And the TGI [2]?
**A.** 2.9 µM

**Q.** And the TGI [3]?
**A.** 4.5 µM

**Q.** And the TGI [4]?
**A.** 5.05 µM

**Q.** And the TGI [5]?
**A.** 3.38 µM

**Q.** And the TGI [6]?
**A.** 57.7 µM

**Q.** What about the TGI [7] of the same compound?
**A.** 3.1 µM

**Q.** And the TGI [8]?
**A.** 5.88 µM

**Q.** What about the TGI [9] of the same compound?
**A.** 3.86 µM

**Q.** What about the TGI [10] of the same compound?
**A.** 17 µM

**Q.** How did the TGI [1] turn out when `c1ccc(COc2ncccc2C2SCCCS2)cc1` was run?
**A.** > 100 µM

**Q.** What about the TGI [2] of the same compound?
**A.** > 100 µM

**Q.** What about the TGI [3] of the same compound?
**A.** > 100 µM

**Q.** And the TGI [4]?
**A.** > 100 µM

**Q.** What about the TGI [5] of the same compound?
**A.** > 100 µM

**Q.** What about the TGI [6] of the same compound?
**A.** > 100 µM

**Q.** What about the TGI [7] of the same compound?
**A.** > 100 µM

**Q.** And the TGI [8]?
**A.** > 100 µM

**Q.** And the TGI [9]?
**A.** > 100 µM

**Q.** And the TGI [10]?
**A.** > 100 µM

**Q.** What does the source list for `N#Cc1nnc2c3c(-c4ccc(Cl)cc4)c(C#N)c(=O)[nH]c3nn2c1N`?
**A.** TGI [1]: 26.9 µM; TGI [2]: 12.7 µM; TGI [3]: 27.9 µM; TGI [4]: 12.5 µM; TGI [5]: 24.5 µM; TGI [6]: 54.9 µM; TGI [7]: 8.08 µM; TGI [8]: 21.7 µM; TGI [9]: 43.5 µM; TGI [10]: 51 µM

**Q.** Which results are given for `CN(C)CCn1c(=O)c2ccc(NCCNCCO)c3c(=O)c4cc(O)ccc4n(c1=O)c23`?
**A.** TGI [1]: 6.85 µM; TGI [2]: 2.18 µM; TGI [3]: 4.56 µM; TGI [4]: 1.65 µM; TGI [5]: 25.1 µM; TGI [6]: > 100 µM; TGI [7]: 19.3 µM; TGI [8]: 13.6 µM; TGI [9]: 3.37 µM; TGI [10]: 3.55 µM

**Q.** With `C=CCN1C(=O)/C(=C/c2ccc(Cl)cc2)N=C1SC1OC(COC(C)=O)C(OC(C)=O)C(OC(C)=O)C1OC(C)=O` (configuration not stated) as the compound, how does the GI50 [1] read?
**A.** 12.6 µM and 30.1 µM

**Q.** And the TGI [1]?
**A.** 34.6 µM and 95.8 µM

**Q.** What about the GI50 [2] of the same compound?
**A.** 49.7 µM and 18.9 µM

**Q.** What about the TGI [2] of the same compound?
**A.** > 100 µM and 42.8 µM

**Q.** And the GI50 [3]?
**A.** 22 µM and 3.62 µM

**Q.** What about the TGI [3] of the same compound?
**A.** 66.5 µM and 31.4 µM

**Q.** And the TGI [4]?
**A.** > 100 µM

**Q.** And the GI50 [5]?
**A.** 9.17 µM and 31 µM

**Q.** What about the TGI [5] of the same compound?
**A.** > 100 µM

**Q.** And the GI50 [6]?
**A.** 11.5 µM and 31.7 µM

**Q.** And the TGI [6]?
**A.** > 100 µM

**Q.** And the TGI [7]?
**A.** > 100 µM

**Q.** And the TGI [8]?
**A.** > 100 µM

**Q.** What about the GI50 [9] of the same compound?
**A.** 7.84 µM and 23.6 µM

**Q.** What about the TGI [9] of the same compound?
**A.** 43.6 µM and 80.9 µM

**Q.** And the GI50 [10]?
**A.** 4.14 µM and 16.7 µM

**Q.** And the TGI [10]?
**A.** 28.2 µM and 67.1 µM

**Q.** For `COc1cc(O)c2c(c1)C(O)C(O)CC1OC1C(=O)/C=C/CC(C)OC2=O` (configuration not stated), which TGI [1] is on record?
**A.** 13.5 µM

**Q.** What about the TGI [2] of the same compound?
**A.** 16.7 µM

**Q.** What about the TGI [3] of the same compound?
**A.** 2.72 µM

**Q.** And the TGI [4]?
**A.** 17.9 µM

**Q.** And the TGI [5]?
**A.** 24.9 µM

**Q.** And the TGI [6]?
**A.** 30.3 µM

**Q.** What about the TGI [7] of the same compound?
**A.** 16.7 µM

**Q.** And the TGI [8]?
**A.** 11.8 µM

**Q.** And the TGI [9]?
**A.** 16.1 µM

**Q.** What about the TGI [10] of the same compound?
**A.** > 52.9 µM

**Q.** Which TGI [1] does the source give for `COc1ccc([C@@]23CCC(=O)C[C@@H]2N(C)CC3)cc1OC` here?
**A.** > 100 µM

**Q.** And the TGI [2]?
**A.** > 100 µM

**Q.** And the TGI [3]?
**A.** > 100 µM

**Q.** And the TGI [4]?
**A.** > 100 µM

**Q.** And the TGI [5]?
**A.** > 100 µM

**Q.** What about the TGI [6] of the same compound?
**A.** > 100 µM

**Q.** What about the TGI [7] of the same compound?
**A.** > 100 µM

**Q.** And the TGI [8]?
**A.** > 100 µM

**Q.** What about the TGI [9] of the same compound?
**A.** > 100 µM

**Q.** And the TGI [10]?
**A.** > 100 µM
